According to paper PMC9804387, “Substrate Peptidomimetic Inhibitors of P. falciparum Plasmepsin X with Potent Antimalarial Activity” (Chemmedchem, 2022):
Values joined by “and” are separate entries in the source; they are usually repeats but may differ in a detail not shown here. Identical values can stand only once. Counter-ions that a name gives are not always drawn. Like-named read-outs stand apart in the source and are kept apart here.

Legend:
recombinant Pf PMX = target: T1, recombinant Pf PMX (Plasmodium falciparum, UniProt Q8IAS0); assay: PMX biochemical FRET assay (Rh2N fluorogenic substrate cleavage); details: for IC50: recombinant PMX, fluorogenic substrate (Rh2N) cleavage, 37 °C, 4 h, mean and SD of 4 replicates (Tables 1, 2)
T1 construct: made in house
Procedure: FRET Protease Assays. FRET protease assays were performed as previously described.[19, 20, 27, 28] Briefly, ten‐point 1 : 3‐fold dilution series of the compounds were prepared in 384‐well black low volume assay plates (Greiner) using an Echo555 (Labcyte). 10 mM compound stocks were transferred into assay plates such that the starting concentration was 90 μM (Pv PMV assays), 11.25 μM (renin, cathepsin D and BACE‐1 assays) or 100 nM and 10 μM (Pf PMX and Pf PMIX assays). All wells were backfilled to 200 nL DMSO such that the DMSO concentration remained constant across the assay plates (1 % final). All compound potency assays were conducted in 20 μL total volume. For each assay, 10 μL of recombinant enzymes in respective assay buffers (Table S2) were dispensed into compound containing assay plates using a Multidrop‐Combi dispenser and allowed to incubate for 15 min. Recombinant Pf PMX, Pf PMIX and Pv PMV were expressed as previously described,[23, 27, 28] and recombinant human aspartyl proteases were purchased commercially. 10 μL of the fluorogenic peptide substrates incubated at 37 °C for the duration and conditions noted in Table S2. Samples were excited at 340 nm and fluorescence emission measured at 492 nm using an Envision fluorescence plate reader (Perkin‐Elmer). The 0 % inhibition control contained DMSO alone (1 % final) and the 100 % inhibition control was in the absence of enzyme. […]
(§1) Table S2 . P rotease FRET assay conditions.
(§2) PMX as sa y PMIX PM V assay Renin assay Cathepsin D assay BA CE-1 assay E nzy me prot e as e 0.25 nM pro te a se 6 nM prot e as e q ua nti ty 0.1 nM pro t ea se 1.5 nM pro t ea se 2.5 nM pro t ea se 3 nM (Pro te os #R-001) ( Athe ns Re sea rc h (Sigma #S4195) […]
(§3) 25mM so di um acetate, 100 mM 25 mM M E S, 25 m M 50 mM Tr is, 100 mM 100 mM so di u m 20 mM so dium Buffer acetate, 0.005% sodium chloride and Tris-HCl, 0.01% N aC l, 0. 1% Bri j-35, acetate 0.02% scetate, 0.05% […]
(§4) Sub str at e DABCYL- ( DA BC YL ) - DABCYL- DABCYL-(γ- Ab u) - E[E(EDANS)]KPIL […]

[1] = tested on: P. falciparum (Pf) 3D7 parasites; assay: P. falciparum LDH viability assay; format: cell-based; details: for EC50: Plasmodium falciparum, 3D7, 72 h, LDH activity, 72 h at 37 °C, mean and SD of 3 independent experiments; for fold decrease in parasite activity compared to PMX inhibition: Pf 3D7 EC50 versus PMX IC50
Procedure: P. falciparum LDH Viability Assay. P. falciparum LDH viability assays were performed as previously described.[40] Briefly, a ten‐point 1 : 3‐fold dilution series of the compounds were pre‐dispensed in 384‐well assay plates (Grenier), and RPMI/AlbuMAX growth media inoculated with synchronized ring stage P. falciparum parasites. 10 mM compound stocks were transferred into the assay plates such that the starting concentration was 10 μM. Plates were incubated for 72 h and then frozen at −80 °C overnight. Lactate dehydrogenase (LDH) activity was quantified with APAD by measuring absorbance of NBT at 650 nm. Data were normalized to percent growth inhibition using the positive control of 0.1 % DMSO alone and the negative control of 100 nM chloroquine. Half‐maximal effective concentration (EC50) values were calculated by GraphPad Prism (8.0.2) software using a nonlinear regression four‐parameter fit analysis using a sigmoidal dose response (variable slope).

in vitro = format: cell-based; details: human
Procedure: HepG2 Cytotoxicity Assay. HepG2 cytotoxicity assays were performed as previously described.[41] Briefly, human hepatocyte HepG2 cells were cultured in DMEM supplemented with 10 % FCS at 37 °C and 5 % CO2 in a humidified incubator. Cells were seeded at 1000 cells/well in 50 μL in 384‐well plates (Grenier) and compounds incubated in ten‐point 1 : 2‐fold dilution series for 48 h. Cytotoxicity was determined using Cell Titer‐Glo (Promega), normalized to DMSO alone controls (100 % viability) and control compound Bortezomib (0 % viability at 10 μM). CC50 values were calculated by GraphPad Prism (8.0.2) software using a nonlinear regression four‐parameter fit analysis with the sigmoidal dose response (variable slope).

recombinant Pf PMIX = target: T2, recombinant Pf PMIX (Plasmodium falciparum, UniProt Q8ILG2); assay: PMIX FRET protease assay; format: biochemical, P. falciparum; details: mean and SD of 4 replicate FRET experiments, 37 °C
T2 construct: made in house
Procedure: (§5) FRET Protease Assays. FRET protease assays were performed as previously described.[19, 20, 27, 28] Briefly, ten‐point 1 : 3‐fold dilution series of the compounds were prepared in 384‐well black low volume assay plates (Greiner) using an Echo555 (Labcyte). 10 mM compound stocks were transferred into assay plates such that the starting concentration was 90 μM (Pv PMV assays), 11.25 μM (renin, cathepsin D and BACE‐1 assays) or 100 nM and 10 μM (Pf PMX and Pf PMIX assays). All wells were backfilled to 200 nL DMSO such that the DMSO concentration remained constant across the assay plates (1 % final). All compound potency assays were conducted in 20 μL total volume. For each assay, 10 μL of recombinant enzymes in respective assay buffers (Table S2) were dispensed into compound containing assay plates using a Multidrop‐Combi dispenser and allowed to incubate for 15 min. Recombinant Pf PMX, Pf PMIX and Pv PMV were expressed as previously described,[23, 27, 28] and recombinant human aspartyl proteases were purchased commercially. 10 μL of the fluorogenic peptide substrates incubated at 37 °C for the duration and conditions noted in Table S2. Samples were excited at 340 nm and fluorescence emission measured at 492 nm using an Envision fluorescence plate reader (Perkin‐Elmer). The 0 % inhibition control contained DMSO alone (1 % final) and the 100 % inhibition control was in the absence of enzyme. Half‐maximal inhibitory concentration (IC50) values were calculated by GraphPad Prism (8.0.2) software using a nonlinear regression four‐parameter fit analysis using a sigmoidal dose response (variable slope).
as §1, §2, §3, §4

recombinant Pv PMV = target: T3, recombinant Pv PMV (Plasmodium vivax, UniProt A5K302); assay: PMV FRET protease assay; format: biochemical
T3 construct: made in house
Procedure: as §5, §1, §2, §3, §4

cathepsin D = target: T4, cathepsin D (Homo sapiens, UniProt P07339); assay: Cathepsin D FRET protease assay; format: biochemical; details: mean and SD of 4 replicate FRET experiments, 37 °C; highest concentration tested 11 μM
T4 construct: purchased Athens Research 16-12-030104

BACE‐1 = target: T5, BACE‐1 (Homo sapiens, UniProt P56817); assay: BACE-1 FRET protease assay; format: biochemical; details: mean and SD of 4 replicate FRET experiments, 37 °C; highest concentration tested 11 μM
T5 construct: purchased Sigma S4195

renin = target: T6, renin (Homo sapiens, UniProt P00797); assay: Renin FRET protease assay; format: biochemical; details: mean and SD of 4 replicate FRET experiments, 37 °C; highest concentration tested 11 μM
T6 construct: purchased Proteos R-001
T6 sequence (P00797 67-406): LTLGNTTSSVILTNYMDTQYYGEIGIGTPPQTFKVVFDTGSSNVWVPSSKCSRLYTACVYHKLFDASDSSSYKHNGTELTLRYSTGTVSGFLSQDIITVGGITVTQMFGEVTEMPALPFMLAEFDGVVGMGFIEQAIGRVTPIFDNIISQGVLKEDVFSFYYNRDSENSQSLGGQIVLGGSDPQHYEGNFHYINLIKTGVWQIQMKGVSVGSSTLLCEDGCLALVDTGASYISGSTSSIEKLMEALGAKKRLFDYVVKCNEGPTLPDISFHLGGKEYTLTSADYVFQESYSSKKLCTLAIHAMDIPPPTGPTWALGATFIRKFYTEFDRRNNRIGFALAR

T1 sequence (Q8IAS0 222-573): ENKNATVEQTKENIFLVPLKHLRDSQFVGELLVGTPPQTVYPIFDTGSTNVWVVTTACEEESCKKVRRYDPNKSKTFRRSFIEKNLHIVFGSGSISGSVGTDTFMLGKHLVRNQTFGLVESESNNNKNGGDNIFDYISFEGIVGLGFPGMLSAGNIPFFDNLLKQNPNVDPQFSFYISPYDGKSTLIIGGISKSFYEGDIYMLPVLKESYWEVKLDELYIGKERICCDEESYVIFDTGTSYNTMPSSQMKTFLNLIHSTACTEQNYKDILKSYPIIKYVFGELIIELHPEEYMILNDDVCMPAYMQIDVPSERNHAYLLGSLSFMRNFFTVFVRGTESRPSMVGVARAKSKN
T3 sequence (A5K302 35-536): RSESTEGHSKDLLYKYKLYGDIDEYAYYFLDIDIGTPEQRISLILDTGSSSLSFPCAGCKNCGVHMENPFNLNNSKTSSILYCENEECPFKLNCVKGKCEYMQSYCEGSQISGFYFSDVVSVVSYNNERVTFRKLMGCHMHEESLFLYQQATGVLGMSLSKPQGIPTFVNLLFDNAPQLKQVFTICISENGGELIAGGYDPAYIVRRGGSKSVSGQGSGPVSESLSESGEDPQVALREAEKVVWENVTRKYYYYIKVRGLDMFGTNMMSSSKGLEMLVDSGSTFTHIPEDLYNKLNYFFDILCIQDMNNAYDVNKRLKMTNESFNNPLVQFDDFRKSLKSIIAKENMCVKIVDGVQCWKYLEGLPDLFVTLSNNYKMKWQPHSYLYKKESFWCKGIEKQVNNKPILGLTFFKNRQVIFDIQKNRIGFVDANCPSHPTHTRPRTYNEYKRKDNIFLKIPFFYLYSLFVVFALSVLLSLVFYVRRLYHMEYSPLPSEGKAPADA
T2 sequence (Q8ILG2 whole entry): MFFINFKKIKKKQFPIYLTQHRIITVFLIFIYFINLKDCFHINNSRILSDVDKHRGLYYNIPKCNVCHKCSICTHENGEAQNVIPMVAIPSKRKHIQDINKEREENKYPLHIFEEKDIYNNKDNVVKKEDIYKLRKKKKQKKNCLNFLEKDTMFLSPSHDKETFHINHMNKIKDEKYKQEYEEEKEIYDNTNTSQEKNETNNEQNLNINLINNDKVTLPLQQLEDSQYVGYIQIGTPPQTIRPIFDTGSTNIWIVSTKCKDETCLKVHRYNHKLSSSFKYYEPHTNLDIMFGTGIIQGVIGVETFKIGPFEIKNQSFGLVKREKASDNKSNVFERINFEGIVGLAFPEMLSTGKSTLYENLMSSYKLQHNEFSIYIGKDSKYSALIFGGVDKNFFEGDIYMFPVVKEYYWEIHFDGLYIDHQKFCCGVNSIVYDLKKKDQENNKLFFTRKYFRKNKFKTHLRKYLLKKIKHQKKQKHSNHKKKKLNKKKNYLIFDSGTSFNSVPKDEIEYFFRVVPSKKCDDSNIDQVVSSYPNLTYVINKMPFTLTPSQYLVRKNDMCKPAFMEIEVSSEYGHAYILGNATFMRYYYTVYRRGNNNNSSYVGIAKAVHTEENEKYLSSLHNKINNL
T4 sequence (P07339 65-412): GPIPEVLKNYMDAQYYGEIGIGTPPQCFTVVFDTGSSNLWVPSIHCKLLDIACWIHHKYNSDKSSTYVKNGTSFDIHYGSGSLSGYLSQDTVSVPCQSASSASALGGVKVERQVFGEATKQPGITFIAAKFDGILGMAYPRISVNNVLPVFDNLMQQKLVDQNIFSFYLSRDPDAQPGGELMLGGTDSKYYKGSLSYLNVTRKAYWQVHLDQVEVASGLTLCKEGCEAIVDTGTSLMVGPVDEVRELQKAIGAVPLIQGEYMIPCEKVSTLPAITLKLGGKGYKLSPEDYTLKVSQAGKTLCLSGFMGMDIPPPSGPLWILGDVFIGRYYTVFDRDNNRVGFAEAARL
T5 sequence (P56817 46-460 limits assumed): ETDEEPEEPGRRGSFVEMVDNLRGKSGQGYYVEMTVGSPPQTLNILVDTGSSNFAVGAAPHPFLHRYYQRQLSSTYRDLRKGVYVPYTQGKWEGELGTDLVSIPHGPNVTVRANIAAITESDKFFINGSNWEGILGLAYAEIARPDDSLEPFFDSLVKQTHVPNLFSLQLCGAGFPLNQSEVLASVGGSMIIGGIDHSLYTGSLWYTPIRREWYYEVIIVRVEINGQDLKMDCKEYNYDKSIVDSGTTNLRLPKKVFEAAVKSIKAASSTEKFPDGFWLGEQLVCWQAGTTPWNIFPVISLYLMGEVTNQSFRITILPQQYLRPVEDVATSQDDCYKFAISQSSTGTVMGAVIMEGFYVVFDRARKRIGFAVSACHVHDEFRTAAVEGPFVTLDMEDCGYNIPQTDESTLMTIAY

Row | Structure (SMILES) | IC50 (recombinant Pf PMX) | EC50 [1] | CC50 at 48 h (in vitro) | fold decrease in parasite activity compared to PMX inhibition [1] | also measured
1 | CCC(C)[C@H](NC(=O)OCc1ccccc1)C(=O)N[C@@H](Cc1ccccc1)[C@H](O)CN[C@H](C)c1ccccc1 (stereo partly drawn) [Compd 37, Cbz‐Ile‐Phe‐HEA‐Bn(CH3)] | 20 nM | 140 nM | > 40000 nM |  | IC50 (recombinant Pf PMIX): 14700 nM; IC50 (recombinant Pv PMV): > 90000 nM; IC50 (cathepsin D): 200 nM; IC50 (BACE‐1): > 11000 nM; IC50 (renin): > 11000 nM
2 | C[C@@H](NC[C@@H](O)[C@H](Cc1ccccc1)NC(=O)[C@@H](CO)NC(=O)OCc1ccccc1)c1ccccc1 [Compd 40, Cbz‐D‐Ser‐Phe‐HEA‐Bn(CH3)⋅TFA] | 330 nM | 570 nM | > 40000 nM |  | fold less active against PMX than the L‐configured Ser (38) counterpart (recombinant Pf PMX; PMX IC50 compared with 38): 7 fold
3 | CC(C)C[C@H](NC(=O)[C@@H](NC(=O)[C@H](CCON=C(N)N)NC(=O)OCc1ccccc1)C(C)C)[C@@H](O)CC(=O)NCCc1ccccc1 [WEHI-842, reference compound] |  |  |  |  | IC50 (recombinant Pv PMV; Table S2, positive control activity in assay, 90 min, read-out: Positive control IC50 in PMV assay): 17 nM
4 | CC(O)[C@H](NC(=O)OCc1ccccc1)C(=O)N[C@@H](Cc1ccccc1)[C@H](O)CN[C@H](C)c1ccccc1 (stereo partly drawn) [Compd 42, Cbz‐Thr‐Phe‐HEA‐Bn(CH3)⋅TFA] | 160 nM | 260 nM | > 40000 nM | 2 fold | 
5 | CC(NCC(O)C(Cc1ccccc1)NC(=O)C(Cc1ccccc1)NC(=O)C(CO)NC(=O)OCc1ccccc1)c1ccccc1 (stereo not drawn) [Compd 22, Cbz‐Ser‐Phe‐Phe‐HEA‐Bn(CH3)⋅TFA] | < 1000 nM and 190 nM and 170 nM | 1400 nM | > 40000 nM |  | 
6 | CC(C)CC(NC(=O)C(CO)NC(=O)OCc1ccccc1)C(=O)NC(CC(C)C)C(O)CNC(C)c1ccccc1 (stereo not drawn) [Compd 25, Cbz‐Ser‐Leu‐Leu‐HEA‐Bn(CH3)⋅TFA] | > 1000 nM and 3500 nM | > 11000 nM | > 40000 nM |  | 
7 | CC(=O)NC(CO)C(=O)NC(CO)C(=O)NC(Cc1ccccc1)C(O)CNC(C)c1ccccc1 (stereo not drawn) [Compd 28, Ac‐Ser‐Ser‐Phe‐HEA‐Bn(CH3)⋅TFA] | 580 nM | > 11000 nM | > 40000 nM | approximately 10 fold | 
8 | CC(=O)NC(CC(N)=O)C(=O)NC(CO)C(=O)NC(Cc1ccccc1)C(O)CNC(C)c1ccccc1 (stereo not drawn) [Compd 27, Ac‐Asn‐Ser‐Phe‐HEA‐Bn(CH3)⋅TFA] | 580 nM | 6700 nM | > 40000 nM | approximately 10 fold | 
9 | CC(=O)N[C@@H](CO)C(=O)N[C@@H](Cc1ccccc1)[C@H](O)CN[C@H](C)c1ccccc1 [Compd 39, Ac‐Ser‐Phe‐HEA‐Bn(CH3)⋅TFA] | 3300 nM | 6200 nM | > 40000 nM |  | 
10 | C[C@@H](NC[C@@H](O)[C@H](Cc1ccccc1)NC(=O)[C@H](Cc1ccccc1)NC(=O)OCc1ccccc1)c1ccccc1 [Compd 36, Cbz‐Phe‐Phe‐HEA‐Bn(CH3)] | 70 nM | 650 nM | > 40000 nM | approximately 6 fold | 
11 | CC(C)CC(NC(=O)C(Cc1ccccc1)NC(=O)C(CO)NC(=O)OCc1ccccc1)C(O)CNC(C)c1ccccc1 (stereo not drawn) [Compd 23, Cbz‐Ser‐Phe‐Leu‐HEA‐Bn(CH3)⋅TFA] | > 1000 nM and 3600 nM | 6000 nM | 30000 nM |  | 
12 | CC(C)C[C@H](NC(=O)[C@H](CO)NC(=O)OCc1ccccc1)[C@H](O)CN[C@H](C)c1ccccc1 [Compd 41, Cbz‐Ser‐Leu‐HEA‐Bn(CH3)⋅TFA] | 1800 nM | 3200 nM | > 40000 nM |  | 
13 | CC(C)C[C@H](NC(=O)OCc1ccccc1)C(=O)N[C@@H](Cc1ccccc1)[C@H](O)CN[C@H](C)c1ccccc1 [Compd 35, Cbz‐Leu‐Phe‐HEA‐Bn(CH3)] | 180 nM | 600 nM | 18000 nM | approximately 6 fold | 
14 | CC(C)CC(NC(=O)C(CO)NC(=O)OCc1ccccc1)C(=O)NC(Cc1ccccc1)C(O)CNC(C)c1ccccc1 (stereo not drawn) [Compd 24, Cbz‐Ser‐Leu‐Phe‐HEA‐Bn(CH3)⋅TFA] | < 1000 nM and 200 nM | 1600 nM | > 40000 nM |  | 
